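Each compound was tested at five concentrations against cells in 96-well plates for 48 hours. GI50 marks 50% less growth.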 Calls of active or inactive are those of the source. Rule as the data show it: active = GI50 up to about 1.1 µM and inactive = higher.
Tests used:
Test in all cases: NCI tumour cell line growth inhibition, 48 h
M14 = system: M14
M19-MEL = system: M19-MEL
SK-MEL-5 = system: SK-MEL-5
IGROV-1 = system: IGROV-1
NCI-H522 = system: NCI-H522
SNB-19 = system: SNB-19
CCRF-CEM = system: CCRF-CEM
A549 = system: A549
HOP-62 = system: HOP-62
SF-295 = system: SF-295
UO-31 = system: UO-31
CAKI-1 = system: CAKI-1
COLO 205 = system: COLO 205
SK-MEL-28 = system: SK-MEL-28
UACC-62 = system: UACC-62
SR = system: SR
PC-3 = system: PC-3
MDA-N = system: MDA-N
MDA-MB-231 = system: MDA-MB-231
NCI/ADR-RES = system: NCI/ADR-RES

| Structure (SMILES) | GI50 (M14) | GI50 (M19-MEL) | GI50 (SK-MEL-5) | GI50 (IGROV-1) | GI50 (NCI-H522) | GI50 (SNB-19) | GI50 (CCRF-CEM) | GI50 (A549) | GI50 (HOP-62) | GI50 (SF-295) | GI50 (UO-31) | GI50 (CAKI-1) | GI50 (COLO 205) | GI50 (SK-MEL-28) | GI50 (UACC-62) | GI50 (SR) | GI50 (PC-3) | GI50 (MDA-N) | GI50 (MDA-MB-231) | GI50 (NCI/ADR-RES) |
| --- | --- | --- | --- | --- | --- | --- | --- | --- | --- | --- | --- | --- | --- | --- | --- | --- | --- | --- | --- | --- |
| C#CCN(Cc1ccc2nc(-c3ccccc3)c(Cl)nc2c1)c1cc(OC)c(OC)c(OC)c1 | > 100 µM (inactive) | > 100 µM (inactive) | 30.3 µM (inactive) | > 100 µM (inactive) | > 100 µM (inactive) | > 100 µM (inactive) | 37.2 µM (inactive) | 86.9 µM (inactive) | > 100 µM (inactive) | > 100 µM (inactive) | > 100 µM (inactive) | > 100 µM (inactive) | 57.1 µM (inactive) | > 100 µM (inactive) | > 100 µM (inactive) | – | – | – | – | – |
| Nc1nc(Cl)cc(NCCCCCCCCCCNc2cc(Cl)nc(N)n2)n1 | 6.44 µM (inactive) | 7.4 µM (inactive) | 0.0982 µM (active) | 22.2 µM (inactive) | 0.415 µM (active) | 75 µM (inactive) | 18.9 µM (inactive) | 3.21 µM (inactive) | 22 µM (inactive) | 0.301 µM (active) | 11.3 µM (inactive) | 25.6 µM (inactive) | 24.9 µM (inactive) | – | 0.0226 µM (active) | 2.62 µM (inactive) | – | – | – | – |
| CC(C)=Cc1cc(C(=O)Nc2ccc(Cl)c(Cl)c2)nc(N)n1 | > 100 µM (inactive) | > 100 µM (inactive) | > 100 µM (inactive) | > 100 µM (inactive) | – | > 100 µM (inactive) | – | > 100 µM (inactive) | > 100 µM (inactive) | > 100 µM (inactive) | > 100 µM (inactive) | > 100 µM (inactive) | – | > 100 µM (inactive) | > 100 µM (inactive) | – | – | – | – | – |
| CN(C)CC(/C(Cc1ccccc1)=N\NC(=O)c1ccncc1)c1ccccc1 (stereo not drawn) | 25.5 µM (inactive) | 30.1 µM (inactive) | 19 µM (inactive) | 47.6 µM (inactive) | 27.4 µM (inactive) | 39 µM (inactive) | 17.2 µM (inactive) | 30.3 µM (inactive) | 33.8 µM (inactive) | 17.4 µM (inactive) | – | 44.3 µM (inactive) | 30.8 µM (inactive) | 45.9 µM (inactive) | 31 µM (inactive) | – | – | – | – | – |
| N#Cc1cccnc1Cl | > 100 µM (inactive) | > 100 µM (inactive) | > 100 µM (inactive) | > 100 µM (inactive) | > 100 µM (inactive) | > 100 µM (inactive) | > 100 µM (inactive) | > 100 µM (inactive) | > 31.6 µM (inactive) | > 100 µM (inactive) | > 100 µM (inactive) | > 100 µM (inactive) | > 100 µM (inactive) | > 100 µM (inactive) | > 100 µM (inactive) | > 100 µM (inactive) | – | – | – | – |
| O=C1Cc2ccccc2N1/N=C\c1ccc(O)cc1 | > 100 µM (inactive) | > 100 µM (inactive) | 44.1 µM (inactive) | > 100 µM (inactive) | – | > 100 µM (inactive) | 11.5 µM (inactive) | 64.9 µM (inactive) | 49.7 µM (inactive) | 77.4 µM (inactive) | 45.1 µM (inactive) | > 100 µM (inactive) | > 100 µM (inactive) | > 100 µM (inactive) | > 100 µM (inactive) | – | – | – | – | – |
| O=C1C=Cc2noc3cccc1c23 | 9.08 µM (inactive) | 3.18 µM (inactive) | 10.5 µM (inactive) | 12.9 µM (inactive) | 1.29 µM (inactive) | 17.5 µM (inactive) | 0.412 µM (active) | 19 µM (inactive) | – | 18.6 µM (inactive) | 4.62 µM (inactive) | 12.5 µM (inactive) | 17 µM (inactive) | 5.47 µM (inactive) | 3.06 µM (inactive) | – | – | – | – | – |
| CC(C)COC(=O)c1ccc(/N=C\c2ccc(/C=N/c3ccc(C(=O)OCC(C)C)cc3)cc2)cc1 | > 100 µM (inactive) | > 100 µM (inactive) | – | > 100 µM (inactive) | > 100 µM (inactive) | > 100 µM (inactive) | – | > 100 µM (inactive) | > 100 µM (inactive) | > 100 µM (inactive) | 23.9 µM (inactive) | > 100 µM (inactive) | > 100 µM (inactive) | > 100 µM (inactive) | > 100 µM (inactive) | > 100 µM (inactive) | – | – | – | – |
| COc1c(Br)cc(Br)c(OC)c1-c1[nH]c(Br)c(Br)c1Br | 7.16 µM (inactive) | 10.2 µM (inactive) | 6.55 µM (inactive) | 5.71 µM (inactive) | 2.18 µM (inactive) | 13.1 µM (inactive) | 4.34 µM (inactive) | 5.04 µM (inactive) | 8.22 µM (inactive) | 4.63 µM (inactive) | 2.13 µM (inactive) | 2.52 µM (inactive) | 10.4 µM (inactive) | 6.65 µM (inactive) | 6.98 µM (inactive) | – | – | – | – | – |
| COc1cc(/C=C(\NC(=O)c2ccccc2)c2nc3cncnc3[nH]2)cc(OC)c1OC | > 100 µM (inactive) | > 100 µM (inactive) | > 100 µM (inactive) | > 100 µM (inactive) | > 100 µM (inactive) | > 100 µM (inactive) | > 100 µM (inactive) | > 100 µM (inactive) | – | > 100 µM (inactive) | 57.7 µM (inactive) | > 100 µM (inactive) | > 100 µM (inactive) | > 100 µM (inactive) | > 100 µM (inactive) | > 100 µM (inactive) | – | – | – | – |
| CCOC(=O)C(NC(=O)c1ccccc1)(Nc1ccc(Cl)cc1C(F)(F)F)C(F)(F)F (stereo not drawn) | 4.13 µM (inactive) | – | 4.91 µM (inactive) | 4.03 µM (inactive) | 2.59 µM (inactive) | 5.48 µM (inactive) | 1.7 µM (inactive) | 4.59 µM (inactive) | 3.91 µM (inactive) | 4.03 µM (inactive) | 5.21 µM (inactive) | 7.5 µM (inactive) | 4.58 µM (inactive) | 6.97 µM (inactive) | 5.3 µM (inactive) | 2.28 µM (inactive) | 3.13 µM (inactive) | 1.51 µM (inactive) | 6.31 µM (inactive) | 2.76 µM (inactive) |
| CNc1nc(N)cc(O)n1 | > 100 µM (inactive) | > 100 µM (inactive) | > 100 µM (inactive) | > 100 µM (inactive) | > 100 µM (inactive) | > 100 µM (inactive) | > 100 µM (inactive) | > 100 µM (inactive) | > 100 µM (inactive) | > 100 µM (inactive) | > 100 µM (inactive) | > 100 µM (inactive) | > 100 µM (inactive) | > 100 µM (inactive) | > 100 µM (inactive) | – | – | – | – | – |
| O=C(CCc1ccccc1)On1nnc2ccccc2c1=O | > 100 µM (inactive) | > 100 µM (inactive) | > 100 µM (inactive) | > 100 µM (inactive) | > 100 µM (inactive) | > 100 µM (inactive) | > 100 µM (inactive) | > 100 µM (inactive) | > 100 µM (inactive) | > 100 µM (inactive) | > 100 µM (inactive) | 30.8 µM (inactive) | > 100 µM (inactive) | – | > 100 µM (inactive) | > 100 µM (inactive) | – | – | – | – |
| C/C(=N\NS(=O)(=O)c1ccc(C)cc1)c1ccc[n+]([O-])n1 | 39.6 µM (inactive) | > 100 µM (inactive) | > 100 µM (inactive) | > 100 µM (inactive) | 36.9 µM (inactive) | > 100 µM (inactive) | 25.2 µM (inactive) | > 100 µM (inactive) | > 100 µM (inactive) | > 100 µM (inactive) | > 100 µM (inactive) | 25.1 µM (inactive) | – | > 100 µM (inactive) | > 100 µM (inactive) | 36.7 µM (inactive) | – | – | – | – |
| O=C1C2c3[nH]c4ccccc4c3C3CCCC3C2C(=O)N1c1ccccc1 (stereo not drawn) | > 100 µM (inactive) | > 100 µM (inactive) | > 100 µM (inactive) | > 100 µM (inactive) | – | – | > 100 µM (inactive) | > 100 µM (inactive) | – | > 100 µM (inactive) | – | – | > 100 µM (inactive) | > 100 µM (inactive) | > 100 µM (inactive) | > 100 µM (inactive) | – | – | – | – |
| O=[PH](O)c1ccccn1 | > 100 µM (inactive) | > 100 µM (inactive) | > 100 µM (inactive) | > 100 µM (inactive) | > 100 µM (inactive) | > 100 µM (inactive) | > 100 µM (inactive) | > 100 µM (inactive) | > 100 µM (inactive) | > 100 µM (inactive) | > 100 µM (inactive) | > 100 µM (inactive) | > 100 µM (inactive) | > 100 µM (inactive) | > 100 µM (inactive) | – | – | – | – | – |
| CCOc1ccc(-c2oc(/C=N/NS(=O)(=O)c3ccc(C)cc3)c([N+](=O)[O-])c2-c2ccc(OCC)cc2)cc1 | 12.4 µM (inactive) | 3.72 µM (inactive) | 6.76 µM (inactive) | 14.1 µM (inactive) | 5.96 µM (inactive) | 15 µM (inactive) | 2.54 µM (inactive) | 19.4 µM (inactive) | 21.3 µM (inactive) | 14.4 µM (inactive) | 12.7 µM (inactive) | 10.3 µM (inactive) | 17.5 µM (inactive) | 12.4 µM (inactive) | 7.11 µM (inactive) | – | – | – | – | – |
| COc1ccc(OC)c(N2CC(N)C2=O)c1 (stereo not drawn) | > 100 µM (inactive) | > 100 µM (inactive) | > 100 µM (inactive) | > 100 µM (inactive) | > 100 µM (inactive) | > 100 µM (inactive) | > 100 µM (inactive) | > 100 µM (inactive) | > 100 µM (inactive) | > 100 µM (inactive) | > 100 µM (inactive) | – | > 100 µM (inactive) | > 100 µM (inactive) | > 100 µM (inactive) | – | – | – | – | – |
| O=C1c2ccccc2C(=O)c2c1ccc(O)c2O [ATHRAQUINONES A] | 77.6 µM (inactive) | 72.4 µM (inactive) | – | 35.6 µM (inactive) | 39.4 µM (inactive) | 61.2 µM (inactive) | 36.6 µM (inactive) | > 10 µM (inactive) | > 100 µM (inactive) | 57.3 µM (inactive) | 36.6 µM (inactive) | 39.5 µM (inactive) | 34.5 µM (inactive) | > 100 µM (inactive) | 25.4 µM (inactive) | 34.8 µM (inactive) | – | – | – | – |

— ChEMBL document CHEMBL1201862, “PubChem BioAssay data set” (2004)
